Counter-ions that a name gives are not always drawn. Like-named read-outs stand apart in the source and are kept apart here.

For series [1], the system named is Passive cutaneous anaphylaxis (PCA) in rats. Kind of series: Passive cutaneous anaphylaxis (PCA) in rats. It counts as in vivo, rat. The note with it: for ED50: Rattus norvegicus. The text has this: Cutaneous anaphylaxis was induced in groups of male rats weighing 180-220 g by intradermal (ID) sensitization with antiserum followed three days later by systemic challenge with antigen. Evans blue dye injected with the antigen was used as a marker to assess the severity of the local response. Anti-allergic drugs inhibit this reaction and this method is described by OVARY [(1962) in "Passive cutaneous Anaphylaxis in Allergology" 358-367 Ed. Brown: Pergamon Press:].
1. Wash 120 grams Al (OH)3 gel in 140 ml of saline (use of a macerater facilitates mixing).
2. Centrifuge at 3,000 r.p.m. for about 10 minutes.
3. Resuspend the precipitate with 300 ml of albumen egg powder (1.3 mg/ml) in saline and allow to stand for 30 minutes.
4. Centrifuge at 3,000 r.p.m. for 10 minutes.
5. Weigh the wet precipitate and to each gram weight, add 1 ml of saline. Store in refrigerator. (Quantity sufficient for 60 rats for a 3 day sensitization programme).
1. 1 ml of the alum precipitated ovalbumen was injected subcutaneously into 180-220 gram rats on days 0,2,4.
2. The rats were bled on day 14 either by cardiac puncture or via the dorsal abdominal aorta.
3. Equal quantities of serum from each animal were pooled and thoroughly mixed.
4. 2 ml aliquots were stored at -20° C. in plastic tubes.
The antiserum for sensitization was diluted so that an ID injection of 0.1 ml into control animals gave an average score of a single spot of between 2.0-3.5 using a 5 point scoring system (0,1,2,3,4).
Rats were anaesthetised with Nembutal (40-60 mg/kg i.p.) and were then sensitized by four ID injections (0.1 ml each) on shaved backs. The animals were then left for a period of three days to develop sensitization.
The sensitized rats were dosed orally or intraveneously with the drug immediately prior to intraveneous challenge via the superficial penile vein with 1 ml of an antigen/Evans blue mixture (1 mg albumen egg powder in 0.5 ml saline plus 0.5 ml of 1% Evans blue). The injections were speeded up by using an automatic 1 ml self-filling glass syringe. The "challenged" rats were killed after 30 minutes, (usually pithed) and their skin on the dorsal surface was removed. The degree and area of blueing, proportional to the anaphylactic reaction was assessed on a five point scoring system.
1. Total scores for sites 1,2,3 and 4=X
2. Mean value of X for each group=X

A short description of series [2]: Solubility remark (footnote of Table 1). Type of series: physicochemical. The note with it: all solvents.
The mark [3] stands for this setting: iv, read-out: ED50 (dose of drug giving 50% inhibition), i.v., dosed immediately prior to intravenous antigen challenge, male rats.
Setting [4] is: po, read-out: ED50 (dose of drug giving 50% inhibition), p.o., dosed immediately prior to intravenous antigen challenge, male rats.

Broadly, the ED50 is the dose at which the effect has come halfway, by size or by number of responders. As to `OCc1cn2c(cnc3ccccc32)n1` [2 (as hydrochloride), Imidazo-[1,2-a]-quinoxaline-2-methanol], the ED50 in series [1] (setting [3]) worked out at 0.16 mg/kg; in series [1] (setting [4]), 0.068 mg/kg. Turning to `c1ccc2c(c1)ncc1nc(-c3nnn[nH]3)cn12` [3 (as hydrochloride), 2-(1H-tetrazol-5-yl)-imidazo-[1,2-a]-quinoxaline], the ED50 in series [1] (setting [4]) turned out to be 0.084 mg/kg. Besides, in series [1] (p.o., dosed immediately prior to intravenous antigen challenge, male rats), the “ED50 (dose of drug giving 50% inhibition), p.o.” value was determined as 0.089 mg/kg. For the compound `Clc1ccc2c(Cl)cc3nc(-c4nnn[nH]4)cn3c2c1` [11 Step C], in series [2], the “solubility (in words)” value is recorded as “extremely insoluble in all solvents”. As to `OCc1cn2c(ccc3ccccc32)n1` [Example 5, Imidazo-[1,2-a]-quinoline-2-methanol], the ED50 in series [1] (setting [4]) amounted to 0.36 mg/kg. On the same count and under the same terms, the figure for `O=Cc1cn2c(ccc3ccccc32)n1` [Example 6, Imidazo-[1,2-a]-quinoline-2-carboxaldehyde] is 0.09 mg/kg. `c1ccc2c(c1)ccc1nc(-c3nnn[nH]3)cn12` [Example 7, 2-(1H-tetrazol-5-yl)-imidazo-[1,2-a]-quinoline]: the ED50 was found to be 0.026 mg/kg in series [1] (setting [3]) and 0.105 mg/kg in series [1] (setting [4]).

As to `NCc1cn2c(ccc3ccccc32)n1` [Example 8, Imidazo-[1,2-a]-quinoline-2-methanamine dihydrochloride], the values for the ED50 in series [1] (setting [3]) and in series [1] (setting [4]) were 0.11 mg/kg and 0.98 mg/kg, respectively. The corresponding values for `COc1ccc2ccc3nc(CO)cn3c2c1` [Example 12] are 0.27 mg/kg and 0.24 mg/kg.

On to `COc1ccc2ccc3nc(C=O)cn3c2c1` [Example 13], for which the median effective dose (ED50) in series [1] (setting [3]) worked out at 0.12 mg/kg; in series [1] (setting [4]), 0.4 mg/kg. Take `COc1ccc2ccc3nc(-c4nnn[nH]4)cn3c2c1` [Example 14, 8-methoxy-2-(1H-tetrazol-5-yl)-imidazo-[1,2-a]-quinoline]: the values for the ED50 in series [1] (setting [3]) and in series [1] (setting [4]) were 0.01 mg/kg and 0.12 mg/kg, respectively. As for `COc1ccc2ccc3nc(CN)cn3c2c1` [Example 15], the ED50 in series [1] (setting [3]) amounted to 3.39 mg/kg. On to `CCn1c(=O)c2nc(CO)cn2c2ccccc21` [Example 21, 5-ethyl-2-hydroxymethyl-imidazo-[1,2-a]-quinoxaline-4-(5H)-one], for which, in series [1] (setting [4]), the 50% effective dose (ED50) stood at 0.062 mg/kg. In the case of `CCn1c(=O)c2nc(C=O)cn2c2ccccc21` [Example 22, 4,5-dihydro-5-ethyl-4-oxo-imidazo-[1,2-a]-quinoxaline-2-carboxaldehyde], the ED50 in series [1] (setting [4]) was 0.077 mg/kg. Same read-out and setting: in the case of `CCn1c(=O)c2cc(CO)cn2c2ccccc21` [Example 24, 5-ethyl-2-hydroxymethyl-pyrrolo-[1,2-a]-quinoxaline-4(5H)-one] it was 0.045 mg/kg. `CCn1c(=O)c2cc(-c3nnn[nH]3)cn2c2ccccc21` [Example 26, 5-ethyl-2-(1H-tetrazol-5-yl)-pyrrolo-[1,2-a]-quinoxaline-4(5H)-one]: the ED50 in series [1] (setting [3]) stood at 0.011 mg/kg; in series [1] (setting [4]), 0.439 mg/kg. Consider `c1ccc2c(c1)OCc1nc(-c3nnn[nH]3)cn1-2` [Example 30, 4H-2-(1H-tetrazol-5-yl)-imidazo-[2,1-c][1,4]-benzoxazine], for which the ED50 in series [1] (setting [3]) came out at 0.33 mg/kg.

Values taken from patent US4333934A, “Imidazoquinoxalines and pyrroloquinoxalines” (Roussel Uclaf, priority 1979, dated 1982).
